Results: PMC10566475, “A cell-active cyclic peptide targeting the Nrf2/Keap1 protein–protein interaction” (Chemical Science, 2023)

Test system: BEAS-2B cells
Assay: CellTiter Glo assay
Conditions: P8-H tested up to 30 μM
Description: Cellular Biology Experimental
performed according to manufacturer instruction and using BEAS-2B cells

CCCCCCCCCCCCCCCCCC(=O)NCCCC[C@H](NC(=O)COCCOCCn1cc(COCCOCCNc2nc3cc(n2)CCSC[C@@H](C(=O)N[C@@H](CC(C)C)C(N)=O)NC(=O)[C@H](CCC(=O)O)NC(=O)CNC(=O)[C@H]([C@@H](C)O)NC(=O)[C@H](CCC(=O)O)NC(=O)[C@@H]2CCCN2C(=O)[C@H](CC(=O)O)NC(=O)[C@@H](NC(C)=O)CSCC3)nn1)C(=O)NCCOCCOCC(=O)NCCOCCOCC(N)=O [Peptide P8-H]
cytotoxicity in CellTiter Glo assay: no cytotoxicity
